“And” between values parts separate entries of the source, which are not always exact repeats. Equal values may be shown once.
Assays:
[1] = system: venous ammonia in pediatric patients with UCDs; assay: Study 6, uncontrolled open-label study in children under 2 years of age; type: in vivo, human
Experimental: Uncontrolled, open-label studies were conducted to assess monthly ammonia control and hyperammonemic crisis of RAVICTI® in pediatric patients with UCDs 2 months to less than 2 years of age (Study 4/4E, Study 5, and Study 6). Patients in Study 5 previously participated in Study 4/4E. A total of 17 pediatric patients with UCDs aged 2 months to less than 2 years participated in the studies.
A total of 10 pediatric patients with UCDs aged 2 months to less than 2 years participated in Study 6, of which 7 patients converted from sodium phenylbutyrate to RAVICTI®. The dosage of RAVICTI® was calculated to deliver the same amount of PBA as the sodium phenylbutyrate dosage the patients were taking when they entered the trial. Two patients were treatment naïve and received RAVICTI® dosage of 7.5 mL/m^2/day and 9.4 mL/m^2/day, respectively. One additional patient was gradually discontinued from intravenous sodium benzoate and sodium phenylacetate while RAVICTI® was initiated. The dosage of RAVICTI® after transition was 8.5 mL/m^2/day.
In Study 6, there were 9, 7 and 3 pediatric patients who completed 1, 3 and 6 months, respectively (mean and median exposure of 4 and 5 months, respectively).
Patients received a mean RAVICTI® dose of 8 mL/m^2/day (8.8 g/m^2/day), with doses ranging from 4.8 to 11.5 mL/m^2/day (5.3 to 12.6 g/m^2/day). Patients were dosed three times a day (n=6), four times a day (n=2), or five or more times a day (n=2).
The primary efficacy endpoint was successful transition to RAVICTI® within a period of 4 days followed by 3 days of observation for a total of 7 days, where successful transition was defined as no signs and symptoms of hyperammonemia and a venous ammonia value less than 100 micromol/L. Venous ammonia levels were monitored for up to 4 days during transition and on day 7. Nine patients successfully transitioned as defined by the primary endpoint. One additional patient developed hyperammonemia on day 3 of dosing and experienced surgical complications (bowel perforation and peritonitis) following jejunal tube placement on day 4. This patient developed hyperammonemic crisis on day 6, and subsequently died of sepsis from peritonitis unrelated to drug. Although two patients had day 7 ammonia values of 150 micromol/L and 111 micromol/L respectively, neither had associated signs and symptoms of hyperammonemia.
During the extension phase, venous ammonia levels were monitored monthly. Ammonia values across different laboratories were normalized (transformed) to a common normal pediatric range of 28 to 57 micromol/L for comparability. The mean normalized venous ammonia values in pediatric patients at month 1, 2, 3, 4, 5 and 6 were 67, 53, 78, 99, 56 and 61 micromol/L during treatment with RAVICTI®, respectively. Three patients reported a total of 7 hyperammonemic crises defined as having signs and symptoms consistent with hyperammonemia (such as frequent vomiting, nausea, headache, lethargy, irritability, combativeness, and/or somnolence) associated with high venous ammonia levels and requiring medical intervention. Hyperammonemic crises were precipitated by vomiting, upper respiratory tract infection, gastroenteritis, decreased caloric intake or had no identified precipitating event (3 events). There were three additional patients who had one venous ammonia level that exceeded 100 micromol/L which was not associated with a hyperammonemic crisis.

[2] = system: blood ammonia in pediatric patients with UCDs; assay: HPN-100-012 open-label fixed sequence switch-over study, blood ammonia control; type: in vivo, human
Excerpt: HPN-100-012, an open-label, fixed sequence, switch-over study of the safety, PK and efficacy of HPN-100 compared to NaPBA in patients with UCDs, with a 12-month safety extension part. […] After review of all the safety data by the DSMB, 8 additional subjects were enrolled in the study after the switch-over phase was completed. The primary efficacy endpoint was the 24-hour AUC (area under the curve) for blood ammonia on Day 1 compared with Day 10.

[3] = target: T1, bile salt-stimulated lipase (Homo sapiens, UniProt P19835); conditions: cited from earlier work
T1 sequence (P19835 21-753): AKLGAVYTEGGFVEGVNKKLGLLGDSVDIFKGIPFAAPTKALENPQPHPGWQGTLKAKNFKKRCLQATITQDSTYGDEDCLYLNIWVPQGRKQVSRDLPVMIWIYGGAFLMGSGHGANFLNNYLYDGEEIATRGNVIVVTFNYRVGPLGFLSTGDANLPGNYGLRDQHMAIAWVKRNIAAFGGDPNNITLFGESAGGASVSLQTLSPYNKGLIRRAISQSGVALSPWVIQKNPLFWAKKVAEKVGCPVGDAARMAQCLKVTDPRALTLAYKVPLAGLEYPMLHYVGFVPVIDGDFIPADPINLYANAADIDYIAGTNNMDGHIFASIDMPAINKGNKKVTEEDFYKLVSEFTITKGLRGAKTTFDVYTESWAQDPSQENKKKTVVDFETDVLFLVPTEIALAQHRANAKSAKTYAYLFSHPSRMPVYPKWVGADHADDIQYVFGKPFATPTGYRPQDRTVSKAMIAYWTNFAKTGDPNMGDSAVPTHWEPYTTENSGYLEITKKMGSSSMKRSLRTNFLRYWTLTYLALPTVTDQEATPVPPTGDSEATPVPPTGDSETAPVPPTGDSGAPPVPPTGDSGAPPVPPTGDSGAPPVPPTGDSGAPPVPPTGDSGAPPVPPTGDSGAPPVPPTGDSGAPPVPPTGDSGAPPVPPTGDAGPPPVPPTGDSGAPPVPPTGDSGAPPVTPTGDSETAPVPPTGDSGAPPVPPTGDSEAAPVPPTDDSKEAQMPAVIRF

[4] = Study 6 extension phase, normalized to 28 to 57 micromol/L
[5] = original scale, predefined non-inferiority upper margin 1.25

SMILES: O=C(CCCc1ccccc1)OCC(COC(=O)CCCc1ccccc1)OC(=O)CCCc1ccccc1 [HPN-100, benzenebutanoic acid, 1′,1″-(1,2,3-propanetriyl) ester]
- additional patients with one venous ammonia level exceeding 100 micromol/L not associated with a hyperammonemic crisis ([1]; Study 6): three
- patients successfully transitioned (no signs and symptoms of hyperammonemia and venous ammonia less than 100 micromol/L) ([1]; Study 6, 10 patients 2 months to <2 years, 7 days): Nine
- day 7 ammonia values of two individual patients ([1]; Study 6, no associated signs and symptoms of hyperammonemia, listed as RAVICTI®): 150 µmol/L and 111 µmol/L
- total hyperammonemic crises ([1]; Study 6, reported by three patients): 7
- mean normalized venous ammonia, month 1 [1, 4]: 67 µmol/L
- mean normalized venous ammonia, month 2 [1, 4]: 53 µmol/L
- mean normalized venous ammonia, month 3 [1, 4]: 78 µmol/L
- mean normalized venous ammonia, month 4 [1, 4]: 99 µmol/L
- mean normalized venous ammonia, month 5 [1, 4]: 56 µmol/L
- mean normalized venous ammonia, month 6 [1, 4]: 61 µmol/L
- Mean blood ammonia at the 12-hour time point ([2]; HPN-100 Day 10, NaPBA Day 1, highest value for both treatments): 28.24 µmol/L
- Mean blood ammonia at the 8-h time point ([2]; HPN-100 Day 10, lowest value on HPN-100): 23.20 µmol/L
- 24-hour AUC for blood ammonia, HPN-100 vs NaPBA, upper 90% CI [2, 5]: 1.002
- 24-hour AUC for blood ammonia, HPN-100 vs NaPBA, upper 95% CI [2, 5]: 1.055
- ammonia AUC, median difference between treatments (HPN-100 vs NaPBA) ([2]; pediatric UCD patients 29 days to <6 years): -37.84 µmol·h/L
- 24-hour AUC for blood ammonia (primary efficacy endpoint), HPN-100 compared to NaPBA ([2]; pediatric UCD patients aged 29 days to <6 years, Day 1 (NaPBA) vs Day 10 (HPN-100), non-inferiority upper margin 1.25): non-inferior
- Blood ammonia levels postprandially at any given time point, HPN-100 (Day 10) vs NaPBA (Day 1) ([2]; postprandial): directionally lower
- hydrolysis in vitro by bile salt-stimulated lipase [3]: hydrolyze
